In brackets after ≈: the same amount, converted by molar mass. Read-outs that look alike come from different tables or passages of the source.
Assays:
[1] = tested on: M. tuberculosis ATCC 35820 (H37Rv-S-R); test: microbe, parasite or virus in culture; format: cell-based; settings: Mycobacterium tuberculosis, 336 h
CYP2C8/9 = test: Tolubutamide methylhydroxylation in human liver microsomes; format: in vitro ADME; settings: 400 μM tolbutamide
[2] = tested on: M. tuberculosis ATCC 35838 (H37Rv-R-R); test: microbe, parasite or virus in culture; format: cell-based; settings: Mycobacterium tuberculosis, 336 h
[3] = tested on: M. tuberculosis ATCC 35822 (H37Rv-H-R); test: microbe, parasite or virus in culture; format: cell-based; settings: Mycobacterium tuberculosis, 336 h
[4] = Plasma levels in an experimental mouse model of TB; settings: in vivo, po
[5] = tested on: M. tuberculosis ATCC 35812 (Kurono); test: Susceptibility testing (agar dilution MIC); format: cell-based; settings: Mycobacterium tuberculosis, ATCC35812, 336 h; 7H11 agar, 37 °C, 14 d; read-out: MIC
[6] = tested on: clinically isolated M. tuberculosis (27 test strains); test: Checkerboard method, combination with existing TB drugs; format: cell-based; settings: antagonism = FIC index >4.0
Description: In addition, the efficacy of OPC-67683 in combination with currently used anti-TB drugs RFP, INH, EB, and SM was examined in vitro using the checkerboard method.

CYP2B6 = target: T1, CYP2B6 (Homo sapiens, UniProt P20813); settings: […] 7-benzyloxyresorufin
T1 sequence (P20813 1-491): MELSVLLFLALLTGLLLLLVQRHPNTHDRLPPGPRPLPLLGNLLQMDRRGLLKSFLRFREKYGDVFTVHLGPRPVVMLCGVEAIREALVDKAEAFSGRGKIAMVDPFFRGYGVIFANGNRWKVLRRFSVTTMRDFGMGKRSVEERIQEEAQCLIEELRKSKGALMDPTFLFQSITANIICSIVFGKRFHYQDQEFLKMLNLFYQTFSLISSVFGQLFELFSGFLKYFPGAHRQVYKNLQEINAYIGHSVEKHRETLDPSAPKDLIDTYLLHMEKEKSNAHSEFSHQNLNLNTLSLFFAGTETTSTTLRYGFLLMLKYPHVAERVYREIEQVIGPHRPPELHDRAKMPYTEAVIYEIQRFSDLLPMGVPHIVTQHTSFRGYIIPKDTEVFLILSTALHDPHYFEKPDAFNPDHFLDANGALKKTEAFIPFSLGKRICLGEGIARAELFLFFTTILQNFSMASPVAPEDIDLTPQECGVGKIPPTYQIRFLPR

[7] = tested on: M. tuberculosis ATCC 25618 (H37Rv); test: Susceptibility testing (agar dilution MIC); format: cell-based; settings: Mycobacterium tuberculosis, 336 h; 7H11 agar, 37 °C, 14 d; read-out: MIC
[8] = tested on: clinically isolated M. tuberculosis; test: microbe, parasite or virus in culture; format: cell-based; settings: for MIC90: Mycobacterium tuberculosis, read-out: MIC90
CYP2A6 = target: T2, CYP2A6 (Homo sapiens, UniProt P11509); test: Coumarin 7-hydroxylation in human liver microsomes; format: in vitro ADME; settings: 2 μM coumarin
T2 construct: Standard incubation mixtures of 0.5 ml contained microsomal protein (0.1–0.5 mg); from tissue; host or cells: pooled human liver microsomes (ten donors)
T2 sequence (P11509 1-494): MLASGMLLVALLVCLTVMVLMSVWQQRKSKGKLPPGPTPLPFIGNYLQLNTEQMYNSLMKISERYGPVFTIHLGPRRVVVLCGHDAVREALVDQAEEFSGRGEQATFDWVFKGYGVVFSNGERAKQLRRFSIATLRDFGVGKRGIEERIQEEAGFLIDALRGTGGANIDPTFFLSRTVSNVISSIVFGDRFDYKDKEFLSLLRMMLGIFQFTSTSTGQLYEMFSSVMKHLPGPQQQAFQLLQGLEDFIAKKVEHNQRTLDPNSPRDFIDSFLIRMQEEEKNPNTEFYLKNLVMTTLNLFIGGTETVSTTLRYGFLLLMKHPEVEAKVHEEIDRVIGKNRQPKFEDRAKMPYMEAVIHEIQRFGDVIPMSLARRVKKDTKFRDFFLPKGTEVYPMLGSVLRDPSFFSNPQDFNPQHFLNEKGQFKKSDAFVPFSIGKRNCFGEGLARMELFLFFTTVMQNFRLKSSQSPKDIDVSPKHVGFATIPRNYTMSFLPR

In the case of `C[C@]1(COc2ccc(N3CCC(Oc4ccc(OC(F)(F)F)cc4)CC3)cc2)Cn2cc([N+](=O)[O-])nc2O1` [OPC-67683, (R)-2-methyl-6-nitro-2-(4-[4-(4-trifluoromethoxyphenoxy)piperidin-1-yl]phenoxymethyl}-2,3-dihydroimidazo[2,1-b]oxazole], the MIC [1] is reported as 0.012 µg/mL (≈ 0.0225 µM), the “Percent of Control” value (CYP2C8/9; 10 μM) is reported as 107.2% of Control and the “Percent of Control” value (CYP2C8/9; 30 μM) is reported as 107.8% of Control. The “Percent of Control” value (CYP2C8/9; 100 μM) was 108.5% of Control, the MIC [2] was 0.006 µg/mL (≈ 0.0112 µM) and the MIC [3] was 0.012 µg/mL (≈ 0.0225 µM). The concentration at 1 h [4] was 133 ± 30 ng/mL, the concentration at 2 h [4] was 193 ± 40 ng/mL and the concentration at 4 h [4] was 220 ± 20 ng/mL. For the same compound, the concentration at 6 h [4] was 297 ± 83 ng/mL, the AUC(0-t) ([4]; 2.5 mg/kg) was 4130 ng·h/mL and the Cmax ([4]; 2.5 mg/kg) was 297 ng/mL. It also gave a Tmax ([4]; 2.5 mg/kg) of 6 h, a concentration at 12 h ([4]; 2.5 mg/kg) of 166 ± 49 ng/mL and a concentration at 24 h ([4]; 2.5 mg/kg) of 49 ± 12 ng/mL. The half-life ([4]; 2.5 mg/kg) was 7.6 h, the MIC [5] was 0.012 µg/mL (≈ 0.0225 µM) and the “Antagonistic activity in combination with RFP, INH, EB, and SM” value [6] was “no antagonistic activity”. The “Percent of Control” value (CYP2B6; 10 μM) was 118.3% of Control, the “Percent of Control” value (CYP2B6; 30 μM) was 112.8% of Control and the “Percent of Control” value (CYP2B6; 100 μM) was 122.3% of Control. For the same compound, the MIC [7] was 0.012 µg/mL (≈ 0.0225 µM), the “MIC90 of OPC-67683 times lower than that of EB” value [8] was ~303 times and the “MIC90 of OPC-67683 times lower than that of INH” value [8] was “eight”. For the same compound, the “MIC90 of OPC-67683 times lower than that of RFP” value [8] was “about 24 times”, the “MIC90 of OPC-67683 times lower than that of SM” value [8] was ~244 times and the MIC90 ([8]; EB-susceptible M. tuberculosis (56 strains)) was 0.0121 µg/mL (≈ 0.0227 µM). The MIC90 ([8]; INH-susceptible M. tuberculosis (31 strains)) was 0.0119 µg/mL (≈ 0.0223 µM), the MIC90 ([8]; RFP-susceptible M. tuberculosis (31 strains)) was 0.0125 µg/mL (≈ 0.0233 µM) and the MIC90 ([8]; SM-susceptible M. tuberculosis (49 strains)) was 0.012 µg/mL (≈ 0.0225 µM). For the same compound, the MIC90 [8] was 0.012 µg/mL (≈ 0.0225 µM), the “Percent of Control” value (CYP2A6; 10 μM) was 103.1% of Control and the “Percent of Control” value (CYP2A6; 30 μM) was 97.8% of Control.
